Like-named read-outs stand apart in the source and are kept apart here.
Assays:
[1] = Acute lethality and toxicity, oral administration (gastric probe); type: in vivo, Mus musculus; design: key to Toxic symptomatology Type: NN = no symptomatology; D = depression; details: in vivo, po; for mortality at 24 h / mortality at 168 h: oral; for mortality at 24 h: read-out: % mortality at following times after administration 24 h; for mortality at 168 h: read-out: % mortality at following times after administration 7 days; for LD50 at 168 h: probit method, read-out: LD50 (mg/kg with reliability limits) 7 days after treatment
Method: (§1) Unless otherwise specified, the research was carried out using: a) Mg-UCD capsules as such; b) the powdered contents of Mg-UCD capsules; CDCA (chenodeoxycholic acid) and UDCA (ursodeoxycholic acid) as pure substance which in all cases was partly dissolved and partly suspended under warm conditions (T = 30°C) in 10% gum arabic mucilage (so as to administer 10-40 ml of liquid per kg orally). In certain cases, namely in the experiments involving parenteral administration, the active principle of Mg-UCD, the chenodeoxycholic acid and ursodeoxycholic acid were dissolved in distilled water of slightly alkaline pH (5-10 ml/kg).
(§2) The generally acute lethality, toxicity and tolerability were determined by oral administration of the Mg-UCD (by gastric probe) in the Mus musculus, rat and dog. Animals of both sexes were used, none of which were pregnant. They were fasted for about 12 hours before treatment (but allowing them free access to water). The investigations were carried out using the Mg-UCD in powder form. Comparative investigations were carried out on the rat and Mus musculus using the active principle by endoperitoneal administration, and chenodeoxycholic acid and ursodeoxycholic acid by oral administration (using a gastric probe). Each dose was administered to 20 rats or Mus musculus (10 male and 10 female) and to eight dogs (4 male and 4 female). The animals were observed attentively during the 7 days following administration, and any lethality, toxic symptoms, disturbances, functional variations determinable with the eye, behaviour etc. were noted.
(§3) The LD50 was determined 7 days after administration using the probit method.

Mus musculus = assay: as above; type: in vivo; design: key to Toxic symptomatology Type: NN = no symptomatology; D = depression; details: oral
Method: as §1, §2, §3

rat = assay: as above; type: in vivo; design: key to Toxic symptomatology Type: NN = no symptomatology; D = depression; details: oral
Method: as §1, §2, §3

hampsters [2] = assay: Action on the formation of cholesterol calculi in the gall-bladder (cholesterol-enriched diet, 80 days); type: in vivo; details: female hampsters; for % animals with calculi / % animals with crystals: cholesterol-enriched diet
Method: (§4) The investigations were carried out on hampsters (of female sex, but excluding those in a state of pregnancy) having an initial weight of 75-90 g. They were treated for 80 days with oral administration (by gastric probe) of MG-UCD (10-20 mg/kg/day), chenodeoxycholic acid (10-20 mg/kg/day) or ursodeoxycholic acid (10-20 mg/kg/day) (Tables 4 and 5). The animals were maintained for 80 consecutive days on a Nossan feed diet for rats, enriched with cholesterol (2 mg/g of food).
(§5) Each experimental group consisted of 10 units. After 80 days, the animals were narcotised with ethyl ether, and the bile was withdrawn, together with the calculi and crystals from the gall-bladder as described by Pearlman and coll. in Gastroenterology 77, 634 (1979).

hampsters [3] = assay: Bile lipid and bile acid contents of the bile (cholesterol-enriched diet, 80 days); type: in vivo
Method: as §4, §5
The bile acid, phospholipid, cholesterol, cholic acid, chenodeoxycholic acid, ursodeoxycholic acid, DCA (deoxycholic acid) and LCA (lithocholic acid) contents were evaluated in the bile by the methods described by Pearlman and coll. (see above).

patients = assay: Controlled study in comparison with the free acids; tolerability in patients; type: in vivo; details: patients
[4] = mouse, 2000 mg/kg, M. musculus F, 2000 mg/kg
[5] = mouse, 2000 mg/kg, M. musculus M, 2000 mg/kg
[6] = mouse, 4000 mg/kg, M. musculus F, 4000 mg/kg
[7] = mouse, 4000 mg/kg, M. musculus M, 4000 mg/kg
[8] = mouse, 8000 mg/kg, M. musculus F, 8000 mg/kg
[9] = mouse, 8000 mg/kg, M. musculus M, 8000 mg/kg
[10] = rat, 2000 mg/kg, Rat F, 2000 mg/kg
[11] = rat, 2000 mg/kg, Rat M, 2000 mg/kg
[12] = rat, 4000 mg/kg, Rat F, 4000 mg/kg
[13] = rat, 4000 mg/kg, Rat M, 4000 mg/kg
[14] = rat, 8000 mg/kg, Rat F, 8000 mg/kg
[15] = rat, 8000 mg/kg, Rat M, 8000 mg/kg

Question: For `C[C@H](CCC(=O)O)[C@H]1CC[C@H]2[C@@H]3[C@@H](O)C[C@@H]4C[C@H](O)CC[C@]4(C)[C@H]3CC[C@]12C` [Ursodeoxycholic acid, 17β-(1-methyl-3-carboxypropyl)-ethiocholane-3α,7β-diol], which mortality at 24 h [1, 4] is on record?
Answer: 0%

Question: What about the mortality at 168 h [1, 4] of the same compound?
Answer: 0%

Question: What about the mortality at 24 h [1, 5] of the same compound?
Answer: 0%

Question: What about the mortality at 168 h [1, 5] of the same compound?
Answer: 0%

Question: And the mortality at 24 h [1, 6]?
Answer: 20%

Question: What about the mortality at 168 h [1, 6] of the same compound?
Answer: 20%

Question: And the mortality at 24 h [1, 7]?
Answer: 20%

Question: And the mortality at 168 h [1, 7]?
Answer: 20%

Question: What about the mortality at 24 h [1, 8] of the same compound?
Answer: 60%

Question: And the mortality at 168 h [1, 8]?
Answer: 70%

Question: And the mortality at 24 h [1, 9]?
Answer: 60%

Question: What about the mortality at 168 h [1, 9] of the same compound?
Answer: 80%

Question: What about the LD50 at 168 h ([1]; mouse, M. musculus F) of the same compound?
Answer: 6140 mg/kg

Question: What about the LD50 at 168 h ([1]; mouse, M. musculus M) of the same compound?
Answer: 5630 mg/kg

Question: And the mortality at 24 h [1, 10]?
Answer: 0%

Question: And the mortality at 168 h [1, 10]?
Answer: 0%

Question: And the mortality at 24 h [1, 11]?
Answer: 0%

Question: And the mortality at 168 h [1, 11]?
Answer: 0%

Question: What about the mortality at 24 h [1, 12] of the same compound?
Answer: 10%

Question: And the mortality at 168 h [1, 12]?
Answer: 10%

Question: What about the mortality at 24 h [1, 13] of the same compound?
Answer: 10%

Question: What about the mortality at 168 h [1, 13] of the same compound?
Answer: 10%

Question: What about the mortality at 24 h [1, 14] of the same compound?
Answer: 70%

Question: What about the mortality at 168 h [1, 14] of the same compound?
Answer: 60%

Question: And the mortality at 24 h [1, 15]?
Answer: 70%

Question: What about the mortality at 168 h [1, 15] of the same compound?
Answer: 70%

Question: And the LD50 at 168 h ([1]; rat, Rat F)?
Answer: 7330 mg/kg

Question: What about the LD50 at 168 h ([1]; rat, Rat M) of the same compound?
Answer: 6490 mg/kg

Question: What about the “Toxic symptomatology Latency” value (Mus musculus; M. musculus F, 2000 mg/kg) of the same compound?
Answer: 5-10 min

Question: What about the “Toxic symptomatology Type” value (Mus musculus; M. musculus F, 2000 mg/kg) of the same compound?
Answer: D

Question: What about the “Toxic symptomatology Latency” value (Mus musculus; M. musculus F, 4000 mg/kg) of the same compound?
Answer: 5-10 min

Question: And the “Toxic symptomatology Type” value (Mus musculus; M. musculus F, 4000 mg/kg)?
Answer: D

Question: And the “Toxic symptomatology Latency” value (Mus musculus; M. musculus F, 8000 mg/kg)?
Answer: 5-10 min

Question: And the “Toxic symptomatology Type” value (Mus musculus; M. musculus F, 8000 mg/kg)?
Answer: D

Question: What about the “Toxic symptomatology Latency” value (Mus musculus; M. musculus M, 2000 mg/kg) of the same compound?
Answer: 5-10 min

Question: What about the “Toxic symptomatology Type” value (Mus musculus; M. musculus M, 2000 mg/kg) of the same compound?
Answer: D

Question: What about the “Toxic symptomatology Latency” value (Mus musculus; M. musculus M, 4000 mg/kg) of the same compound?
Answer: 5-10 min

Question: What about the “Toxic symptomatology Type” value (Mus musculus; M. musculus M, 4000 mg/kg) of the same compound?
Answer: D

Question: And the “Toxic symptomatology Latency” value (Mus musculus; M. musculus M, 8000 mg/kg)?
Answer: 5-10 min

Question: And the “Toxic symptomatology Type” value (Mus musculus; M. musculus M, 8000 mg/kg)?
Answer: D

Question: And the “Toxic symptomatology Latency” value (rat; Rat F, 2000 mg/kg)?
Answer: 5-10 min

Question: And the “Toxic symptomatology Type” value (rat; Rat F, 2000 mg/kg)?
Answer: D

Question: What about the “Toxic symptomatology Latency” value (rat; Rat F, 4000 mg/kg) of the same compound?
Answer: 5-10 min

Question: What about the “Toxic symptomatology Type” value (rat; Rat F, 4000 mg/kg) of the same compound?
Answer: D

Question: What about the “Toxic symptomatology Latency” value (rat; Rat F, 8000 mg/kg) of the same compound?
Answer: 5-10 min

Question: And the “Toxic symptomatology Type” value (rat; Rat F, 8000 mg/kg)?
Answer: D

Question: And the “Toxic symptomatology Latency” value (rat; Rat M, 2000 mg/kg)?
Answer: 5-10 min

Question: What about the “Toxic symptomatology Type” value (rat; Rat M, 2000 mg/kg) of the same compound?
Answer: D

Question: What about the “Toxic symptomatology Latency” value (rat; Rat M, 4000 mg/kg) of the same compound?
Answer: 5-10 min

Question: And the “Toxic symptomatology Type” value (rat; Rat M, 4000 mg/kg)?
Answer: D

Question: And the “Toxic symptomatology Latency” value (rat; Rat M, 8000 mg/kg)?
Answer: 5-10 min

Question: And the “Toxic symptomatology Type” value (rat; Rat M, 8000 mg/kg)?
Answer: D

Question: What about the “% animals with calculi” value (hampsters [2]; 10 mg/kg/day oral for 80 days) of the same compound?
Answer: 40%

Question: And the “% animals with crystals” value (hampsters [2]; 10 mg/kg/day oral for 80 days)?
Answer: 20%

Question: What about the “% animals with calculi” value (hampsters [2]; 20 mg/kg/day oral for 80 days) of the same compound?
Answer: 0%

Question: And the “% animals with crystals” value (hampsters [2]; 20 mg/kg/day oral for 80 days)?
Answer: 0%

Question: And the “Body weight (g ± s.e.) after following days 80” value (hampsters [2]; day 80, oral, 10 mg/kg/day)?
Answer: 141 ± 7 g

Question: What about the “Bile acids (expressed as molar % ± s.e.) Cheno-deoxycholic acid” value (hampsters [3]; 10 mg/kg/day oral for 80 days) of the same compound?
Answer: 12.4 ± 2.6 molar %

Question: And the “Bile acids (expressed as molar % ± s.e.) Cholic acid” value (hampsters [3]; 10 mg/kg/day oral for 80 days)?
Answer: 30.2 ± 4.1 molar %

Question: What about the “Bile acids (expressed as molar % ± s.e.) DCA” value (hampsters [3]; 10 mg/kg/day oral for 80 days) of the same compound?
Answer: 12.9 ± 0.8 molar %

Question: What about the “Bile acids (expressed as molar % ± s.e.) LCA” value (hampsters [3]; 10 mg/kg/day oral for 80 days) of the same compound?
Answer: 2.5 ± 0.1 molar %

Question: And the “Bile acids (expressed as molar % ± s.e.) Urso-deoxycholic acid” value (hampsters [3]; 10 mg/kg/day oral for 80 days)?
Answer: 36.2 ± 1.4 molar %

Question: What about the “Bile lipids (expressed as molar % ± s.e.) Bile acids” value (hampsters [3]; 10 mg/kg/day oral for 80 days) of the same compound?
Answer: 79.7 ± 4.1 molar %

Question: And the “Bile lipids (expressed as molar % ± s.e.) Cholesterol” value (hampsters [3]; 10 mg/kg/day oral for 80 days)?
Answer: 7.4 ± 0.4 molar %

Question: And the “Bile lipids (expressed as molar % ± s.e.) Phospho-lipids” value (hampsters [3]; 10 mg/kg/day oral for 80 days)?
Answer: 15.5 ± 1.0 molar %

Question: And the “Bile acids (expressed as molar % ± s.e.) Cheno-deoxycholic acid” value (hampsters [3]; 20 mg/kg/day oral for 80 days)?
Answer: 4.5 ± 0.9 molar %

Question: And the “Bile acids (expressed as molar % ± s.e.) Cholic acid” value (hampsters [3]; 20 mg/kg/day oral for 80 days)?
Answer: 17.9 ± 2.1 molar %

Question: What about the “Bile acids (expressed as molar % ± s.e.) DCA” value (hampsters [3]; 20 mg/kg/day oral for 80 days) of the same compound?
Answer: 10.5 ± 0.6 molar %

Question: What about the “Bile acids (expressed as molar % ± s.e.) LCA” value (hampsters [3]; 20 mg/kg/day oral for 80 days) of the same compound?
Answer: 3.9 ± 0.2 molar %

Question: What about the “Bile acids (expressed as molar % ± s.e.) Urso-deoxycholic acid” value (hampsters [3]; 20 mg/kg/day oral for 80 days) of the same compound?
Answer: 72.8 ± 4.7 molar %

Question: And the “Bile lipids (expressed as molar % ± s.e.) Bile acids” value (hampsters [3]; 20 mg/kg/day oral for 80 days)?
Answer: 81.3 ± 4.3 molar %

Question: What about the “Bile lipids (expressed as molar % ± s.e.) Cholesterol” value (hampsters [3]; 20 mg/kg/day oral for 80 days) of the same compound?
Answer: 5.7 ± 0.2 molar %

Question: And the “Bile lipids (expressed as molar % ± s.e.) Phospho-lipids” value (hampsters [3]; 20 mg/kg/day oral for 80 days)?
Answer: 15.8 ± 1.0 molar %

Question: What about the side effects (patients) of the same compound?
Answer: tends to cause constipation
